Test results reported in PubChem BioAssay (NCI).
“And” between values parts separate entries of the source, which are not always exact repeats. Equal values may be shown once.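 Cultured in 96-well plates, cells were exposed to test compound for 48 hours across five concentrations. GI50: concentration for 50% inhibition of growth. TGI marks complete inhibition of growth.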

Legend:
Assay in all cases: DTP human tumour cell line panel, 48 h
[1] = tested on: CCRF-CEM leukemia
[2] = tested on: COLO 205 colon
[3] = tested on: HCT-15 colon
[4] = tested on: HS 578T breast
[5] = tested on: K-562 leukemia
[6] = tested on: M14 melanoma
[7] = tested on: MDA-MB-435
[8] = tested on: NCI-H23 lung
[9] = tested on: PC-3 prostate
[10] = tested on: SK-OV-3 ovarian

Row | Structure (SMILES) | GI50 [1] | TGI [1] [µM] | GI50 [2] | TGI [2] | GI50 [3] | TGI [3] | GI50 [4] | TGI [4] | GI50 [5] | TGI [5] | GI50 [6] | TGI [6] | GI50 [7] | TGI [7] | GI50 [8] | TGI [8] | GI50 [9] | TGI [9] | GI50 [10] | TGI [10] [µM]
1 | Cn1cc(-c2ccc(-c3ccc(C4=NC5(CC5)C(=O)N4C[C@@H]4CCN(C(=O)C5CC5)C4)cc3)cc2)cn1 | 6.01 µM | 42.5 | 15.6 µM | 93.5 µM | 2.71 µM | 43 µM | 19.2 µM | 84.1 µM | 7.11 µM | > 100 µM | 20.2 µM | > 100 µM | 10.4 µM | 38.9 µM | 12.7 µM | 41.8 µM | 22.8 µM | > 100 µM | 29.9 µM | > 100
2 | COC(=O)[C@@H](C)C[C@H](Cc1ccccc1)NC(=O)c1csc([C@@H](C[C@H](C(C)C)N(C)C(=O)[C@@H](NC(=O)[C@H]2CCCCN2C)C2CC2)OC(C)=O)n1 | 0.000621 µM and 0.00165 µM | > 16.5 | 0.000369 µM and < 0.00165 µM | 0.00336 µM and < 0.00165 µM | 0.00131 µM and 0.00165 µM | > 16.5 µM | 0.00112 µM and 0.00165 µM | > 16.5 µM | 0.000313 µM and 0.00165 µM | > 16.5 µM | 0.000455 µM and < 0.00165 µM | < 0.00165 µM | < 0.00165 µM | < 0.00165 µM | 0.000532 µM and 0.00165 µM | > 16.5 µM | 0.000211 µM and 0.00165 µM | > 16.5 µM | 0.000604 µM and 0.00165 µM | > 16.5
3 | O=C1C(=O)c2cccnc2-c2ncccc21 | 0.0797 µM | 0.618 | 1.03 µM | 2.51 µM | 0.185 µM | 1.42 µM | 0.244 µM | 1.08 µM | 0.211 µM | 0.848 µM | 0.159 µM | 0.441 µM | 0.263 µM | 1.02 µM | 0.319 µM | 1.3 µM | 0.208 µM | 1.27 µM | 1.16 µM | 2.98
4 | Cc1cc(N2CCOCC2)cc2[nH]c(-c3c(NC[C@@H](O)c4cccc(Cl)c4)cc[nH]c3=O)nc12 | 4.01 µM | > 100 | 0.118 µM | 0.642 µM | 2.08 µM | 31.5 µM | 1.04 µM | 4.42 µM | 2.94 µM | 13 µM | 0.925 µM | 7.66 µM | 1.07 µM | 7.9 µM | 1.29 µM | 11.3 µM | 3.7 µM | > 100 µM | 4.56 µM | 25
5 | Cc1ccc(O)c(NC(=O)c2ccc(CNc3ccnc(C(F)(F)F)c3)cc2)c1 | 0.496 µM | 17.7 | 5.57 µM | 20.1 µM | 5.19 µM | 76.3 µM | 11.2 µM | 42.8 µM | 1.54 µM | 17.9 µM | 5 µM | 24.2 µM | 4.26 µM | 22.1 µM | 10.6 µM | 53.3 µM | 9.5 µM | 38 µM | 3.87 µM | 36.7
6 | COC(=O)/C=C/c1cc2c(cc1-c1c(C(=O)O)cc(OC)c(OC)c1OC)OCO2 |  | > 10 |  | > 10 µM |  | > 10 µM |  | > 10 µM |  | > 10 µM |  | > 10 µM |  | > 10 µM |  | > 10 µM |  | > 10 µM |  | > 10
7 | COc1ccc2c(c1)C(=O)c1c-2n(CCCI)c(=O)c2cc([N+](=O)[O-])ccc12 | 0.0254 µM and 0.0153 µM |  | 1.77 µM and 1.12 µM | 21.6 µM and 55.3 µM | 1.05 µM and 1.13 µM | 50 µM and 28 µM | 7.67 µM and 3.85 µM | 31.2 µM and 35.3 µM | 0.0596 µM and 0.19 µM | 50 µM and > 100 µM | 0.133 µM and 0.057 µM | 0.59 µM and 1.35 µM | 0.449 µM and 1.49 µM | 5.43 µM and 16.5 µM | 0.16 µM and 0.119 µM | 0.988 µM and 1.27 µM | 0.279 µM and 1.42 µM | 30.4 µM and > 100 µM | 0.23 µM and 0.48 µM | 
8 | O=C1c2ccccc2-c2c1c1ccccc1c(=O)n2CCCn1ccnc1 | 1.51 µM | > 100 | 5.41 µM | > 100 µM | 1.9 µM | > 100 µM | 7.92 µM | 94.7 µM | 1.45 µM | 4.64 µM | 5.71 µM | > 100 µM | 2.74 µM | 10.7 µM | 1.84 µM | 6.05 µM | 2.04 µM | > 100 µM | 6.68 µM | > 100
9 | CCNC(=O)O[C@H]1CN[C@H](C#Cc2cc3ncnc(Nc4ccc(OCc5cccc(F)c5)c(Cl)c4)c3s2)C1 | 2.91 µM | > 25 | 6.9 µM | > 17.7 µM | 9.83 µM | > 25 µM | 4.82 µM | 24.6 µM | 9.45 µM | > 25 µM | > 22.6 µM | > 25 µM | 9.27 µM | > 25 µM | 9.13 µM | > 25 µM | 5.93 µM | > 25 µM | 0.0299 µM | > 25
10 | CC(C)CC(NC(=O)OC(C)(C)C)C(=O)Nc1ccc(Nc2nc(F)nc(-c3c4ccccc4cn3C)n2)cc1 (stereo not drawn) |  | > 100 |  | 49.3 µM |  | > 100 µM |  | > 100 µM |  | > 100 µM |  | > 100 µM |  | > 100 µM |  | > 100 µM |  | > 100 µM |  | > 100
11 | O=C1CCc2c(sc3[nH]c(=S)n(Cc4ccc(Cl)cc4)c(=O)c23)C1 | 0.479 µM | > 100 | 1.92 µM | 3.71 µM | 0.347 µM | 1.64 µM | 0.46 µM | > 100 µM | 0.324 µM | > 100 µM | 0.477 µM | > 56.3 µM | 1.44 µM | 8.33 µM | 0.345 µM | 2.68 µM | 0.309 µM | > 35.8 µM | 2.86 µM | 8.92
